Test results from paper PMC7139549, “TLD1433 Photosensitizer Inhibits Conjunctival Melanoma Cells in Zebrafish Ectopic and Orthotopic Tumour Models” (Cancers, 2020).
Read-outs that look alike come from different tables or passages of the source.

Columns and labels:
[1] = system: A431 epidermoid carcinoma cell line; experiment: SRB cell viability assay, A431; assay type: cell-based, Human
Experimental: TLD1433 is known to generate reactive oxygen species (ROS) with high quantum efficacy in many cancer cell lines. However, there is no report of the in vitro toxicity of this compound in eye melanoma (UM) cell lines. We determined the cell viability of three conjunctival melanoma cell lines (CRMM1, CRMM2 and CM2005.1), and three uveal melanoma cell lines (OMM1, OMM2.5, MEL270) in the presence of TLD1433, both in the dark or under green light irradiation (21 mW/cm^2, 19 J/cm^2, 520 nm, 15 min), and compared this viability to epidermoid carcinoma A431 and cutaneous melanoma A375 cell lines under the same conditions. […] The phototoxicity index (PI), defined as the ratio of the dark EC50 to the light EC50, was also calculated and represents the amplification of TLD1433 activity with a light trigger. […]
Figure 2 Cell viability after TLD1433 treatment of eight tumour cell lines (CRMM1, CRMM2, CM2005.1, OMM1, OMM2.5, MEL270, A431, A375). […] The absorbance of Sulforhodamine B in solution was measured at 520 nm. […]
At day 0, cells were detached using 1mL of trypsin, resuspended in 4 mL of media and transferred to a 15 mL corning falcon tube. Cells were counted using trypan blue and BioRad® TC20™ automated cell counter (Figure 11). […] Next day, the dye was dissolved using Tri-base (0.25%) and absorbance of SRB at 510 nm was recorded from each well using a Tecan plate reader. […]

[2] = system: wild type zebrafish embryos; experiment: Maximum tolerated dose in wild type zebrafish embryos; assay type: in vivo; conditions: for Maximum Tolerated Dose (MTD): Wild Type Embryos, 4 treatments, 90 min green light 114 J.cm^−2; for concentration not toxic to embryos in the dark: wild type embryos
Experimental: Water administration (WA) of drugs by skin epithelial cell absorption and drinking is commonly used in zebrafish drug experiments. […] In addition, we also tested IV of TLD1433 by direct injection into the dorsal vein, as well behind the eye injections for RO administration. For IV and RO administration, the compound was injected four times into the embryos at 3, 4, 5 and 6dpf, followed by 60 min drug-to-light interval and the same kinetic and irradiation regime as for the WA administration (Figure 5A).
(A) Schedule of TLD1433 treatment in wild type zebrafish. […] (B) WA, (C) IV, (D) RO. (B–D) Images were made of irradiated (light) and non-irradiated (dark) embryos (n = 30) at 6dpf and the percentages of mortality, malformation and fish length were calculated (shown as means ± SD from three independent experiments). Representative images of embryos under dark and light conditions are shown.
At 2.5, 3.5, 4.5, 5.5 dpf, TLD1433 was added to the fish water and maintained for 12 h. […] At 3, 4, 5, 6 dpf, 1nL of TLD1433 was injected via the dorsal vein or the RO site and maintained for 1 h. […] The images of treated and wild type embryos at 6 dpf were taken using a DFC420C camera coupled to a Leica MZ16FA fluorescence microscope. In order to determine the MTD of tumour cell bearing zebrafish, TLD1433 was performed according to the same procedure, delivered by WA, IV and […] administration as described above for the wild type embryos.

## Cc1ccnc(-c2cc(C)ccn2)c1.Cc1ccnc(-c2cc(C)ccn2)c1.[Cl-].[Cl-].[Ru+2].c1csc(-c2ccc(-c3ccc(-c4nc5c6cccnc6c6ncccc6c5[nH]4)s3)s2)c1 [TLD1433]
[1]; A431, dark, 24 h treatment, SRB, read-out: EC50, dark
  EC50: > 5000 nM
[1]; A431, green light 520 nm, 15 min, 21 mW/cm^2, 19 J.cm^−2, DLI 24 h, read-out: EC50,light
  EC50: 49 nM
[2]; Intravenous 1 nL, 60 min DLI
  Maximum Tolerated Dose (MTD): 4.6 mM
[2]; Retro-orbital 1 nL, 60 min DLI
  Maximum Tolerated Dose (MTD): 4.6 mM
[2]; Water administration, 12 h DLI
  Maximum Tolerated Dose (MTD): 9.2e-06 mM
[2]; IV 1 nL
  concentration not toxic to embryos in the dark: 11500 µM
[2]; RO 1 nL
  concentration not toxic to embryos in the dark: 11500 µM
[2]; WA
  concentration not toxic to embryos in the dark: 0.023 µM
